Measured values from patent US8299049B2, “Compositions comprising an extract of Tiarella polyphylla or compounds isolated therefrom for preventing and treating cancer diseases” (Korea Institute of Bioscience and Biotechnology, priority 2007, dated 2012).

Legend:
Type in all cases: cell-based
[1] = test system: TM4SF5-null cells including Hek293 and COST fibroblast, MDA-MB-453 breast, SNU638 and SNU668 stomach, and SNU398 liver epithelial cells; experiment: Cell number of diverse cell lines without TM4SF5 after TA treatment; conditions: TA 5 or 20 μM
Protocol: (§1) After virus infection, pooled stable clones (control SNU449Cp and TM4SF5-expressing SNU449Tp cell clones) and single cell-driven stable clones (TM4SF5-expressing SNU449T16) were prepared by infecting SNU449 hepatocytes (Korean Cell Bank, Seoul, Korea) with retrovirus for empty pLNCX or pLNCX with TM4SF5. Parental and control cells (Cp) were maintained in RPMI-1640/10% FBS/0.25 μg/ml gentamycin (Calbiochem, San Diego, Calif.) without or with 200 μg/ml G418 (A.G. Scientific Inc., San Diego, Calif.), respectively, at 37° C. and 5% CO2. Cells endogenously expressing TM4SF5 or cells endogenously expressing no TM4SF5 (Korean Cell Bank) were maintained in either DMEM-H or RPMI-1640 media with 10% FBS (JBI Inc., Daegu, Korea).
(§2) Next, to confirm that tiarellic acid (TA) is specific to TM4SF5, cytotoxicity of tiarellic acid (TA) was examined using cells with endogenous TM4SF5 expression. RT-PCR was performed using a primer set described in the following Table 1 under the conditions including 30 cycles of 94° C. for 30 sec, 55° C. for 30 sec, and 72° C. for 30 sec. Diverse cell lines were treated with tiarellic acid (TA) at a concentration of 5 or 20 μM.

[2] = test system: cells with endogenous TM4SF5 expression; experiment: Cell number of cell lines with endogenous TM4SF5 expression after TA treatment; conditions: TA 5 or 20 μM
Protocol: as §1, §2

[3] = test system: focal adhesion kinase (FAK), paxillin, p130Cas in TM4SF5-expressing SNU449T16 cells; experiment: Immunoblot of focal adhesion molecule expression and activation, SNU449T16
Protocol: (§3) Whole cell lysates from cells under diverse experimental conditions were prepared, as described in the literature (Lee, S. Y. et al., Focal adhesion and actin organization by a cross-talk of TM4SF5 with integrin α2 are regulated by serum treatment, Exp Cell Res, 312, pp. 2983-99, 2006). For example, cells were subjected to electroporation (950 μF, 250 V) with a control GFP, wild-type focal adhesion kinase (FAK), paxillin, p130Cas cDNA. One day after electroporation, cells were treated with TA (20 μM) for the indicated periods. Cells cultured normally or treated with TA at different concentrations for the indicated periods were harvested using RIPA buffer. Control or tumor tissues from nude mice were frozen immediately after surgery using liquid N2. Tissues in the liquid N2 was homogenized using a mortar and pestle, and extracted using 0.1% SDS containing RIPA buffer. Standard Western blots of lysates were performed by using antibody against phospho-Y^397, Y^407, Y^577, Y^861, Y^925 FAK (BioSource International, Inc., Camarillo, Calif.), phospho-Y^416Src, c-Src, p15^INK4B, p16^INK4A (Santa Cruz Biotech., Santa Cruz, Calif.), FAK, p130Cas, paxillin, pY^118paxillin, active caspase-3 (BD Transduct. Lab., San Jose, Calif.), α-tubulin (Sigma, St Louis, Mo.), phopsho-S^473, or T^308Akt, Akt, phospho-Erk1/2, Erk1/2 (Cell Signaling Tech., Danvers, Mass.), and TM4SF5 (homemade).
To examine which signaling molecule is affected by tiarellic acid (TA), the following procedure was performed, as described in the literature (Lee, S. Y. et al., Focal adhesion and actin organization by a cross-talk of TM4SF5 with integrin α2 are regulated by serum treatment, Exp Cell Res, 312, pp. 2983-99, 2006).
The SNU449 cell lines were treated with tiarellic acid (TA) in a dose- (0, 1, 5, 20 μM) and time-dependent (0, 8, 16, 24, 36 hrs) manner.
The SNU449Cp and SNU449T16 cell lines were treated with tiarellic acid (TA) at varying concentrations (0, 1, 5, 20 μM) for 24 hrs, and then immunoblot assay was performed.

[4] = test system: focal adhesion molecules in cells lacking TM4SF5; experiment: Focal adhesion molecule activation in TM4SF5-null cell lines; conditions: FIG. 12
Protocol: as §3

TM4SF5-null cells = experiment: Immunofluorescence of focal adhesions and actin, TM4SF5-null cells; conditions: 20 μM TA
Protocol: Cells were treated with DMSO or 20 μM TA for 24 hrs. Then, the cells were plated on 10 μg/ml fibronectin-precoated coverslips and incubated for 2 hrs in the presence of DMSO or 20 μM TA. Subsequently, immunofluorescence staining was performed using pY^397 FAK, pY^118 paxillin, and actin, as described in the literature (Lee, S. Y. et al., Focal adhesion and actin organization by a cross-talk of TM4SF5 with integrin α2 are regulated by serum treatment, Exp Cell Res, 312, pp. 2983-99, 2006). Mounted samples were visualized by a fluorescent microscope (BX51, Olympus, Japan).

[5] = test system: TM4SF5-expressing cells (SNU449Tp, SNU449T16); experiment: Degree of adhesion on fibronectin-precoated dishes, TM4SF5-expressing cells; conditions: 20 μM TA 24 hr, reseeded on fibronectin 1 hr
Protocol: Thus, it could be thought that TA treatment induces anoikis of TM4SF5-expressing cells. To examine whether TA treatment affected cellular adhesion, the following procedure was performed prior to analysis of TA-meditated cell death, as described in the literature (Yang, X. et al., Palmitoylation supports assembly and function of integrin-tetraspanin complexes, J Cell Biol, 167, pp. 1231-40, 2004).
Cells were treated with 20 μM TA for 24 hr, and the floating cells were collected and reseeded on fibronectin-precoated dishes for 1 hr before determination of the degree of adhesion.

[6] = test system: SNU449Tp cells expressing TM4SF5; experiment: Number of floating cells, SNU449Tp; conditions: TA versus DMSO
From the text: FIG. 17 is a graph showing the number of floating SNU449Cp and SNU449Tp cells, after tiarellic acid (TA) treatment for various time periods;

C=C(C)C1CC[C@]2(C)CC[C@]3(C(=O)O)C(CCC4[C@@]5(C)CC[C@H](O)[C@@](C)(CO)C5CC[C@]43C)C12 (stereo partly drawn) [tiarellic acid (TA), 3,23-dihydroxy-20(29)-lupen-27-oic acid]
proliferation of TM4SF5-null cells [1]: not affected
growth of cells with endogenous TM4SF5 expression [2]: growth suppression
p130Cas phosphorylation and physical association among FAK, p130Cas, and paxillin ([3]; FIG. 10, cell line not stated): decreased
FAK and paxillin phosphorylation and p130Cas protein levels over time ([3]; SNU449T16, 20 μM TA, 0, 8, 16, 24, 36 hrs): remarkably decreased in a time-dependent manner
FAK and paxillin phosphorylations and p130Cas protein levels ([3]; SNU449T16, 20 μM TA, 24 hrs): reduced
inhibitory effects on focal adhesion molecule activation [4]: not
focal adhesion formation (TM4SF5-null cells): did not affect
adhesion [5]: significantly reduced adhesions
number of floating cells [6]: increased
